Tests used:
[1] = biological target: panel containing 20 methyltransferases including PRMT9; assay: methyltransferase selectivity panel; format: biochemical; details: other methyltransferases including PRMT9, substrates near KM^app
Protocol: (A) Plots indicating the mode of inhibition against
IC50 values are graphed as a function of substrate concentration relative to Kmapp
(top panel, SAM; bottom panel, H4 1-21 peptide). Data points (closed vs. open
circles) represent two independent experiments. (B) IC50 values plotted as a
represent data generated using 0.8 nM PRMT5/MEP50 while closed circles
represent data with 4 nM PRMT5/MEP50 (top panel).
following a 60 minute Enz:SAM:Inh preincubation fit to a 3-parameter dose-
Enz:SAM:Inh preincubation. IC50 values were determined by fitting inhibition
data to a 3-parameter dose-response equation. Ki*app values were calculated
from IC50 values using the Cheng-Prusoff equation for a competitive inhibitor.

SDMA in Z-138 tumors = assay: SDMA in Z-138 tumour xenograft; format: in vivo, mouse; details: 7 days
Protocol: Treatment was re-instated on day 32 for 2 weeks followed by a 1 week holiday. […] QD doses evaluated include 0, 50, 100, and 200 mg/kg. […] Sampling 2 hours post last dose. […] SDMA ELISA was performed on homogenized cells and frozen tumour lysates. Fluorescence intensity generated by addition of Luminata Forte (Millipore #WBKUF0500) substrate was measured on a PerkinElmer Envision plate reader.

[2] = tested on: p53 mutant MCL xenograft model, REC-1; assay: REC-1 xenograft efficacy; format: in vivo, mouse; details: 100 mg/kg BID
Description: We also observed an increase in the expression of p53 target genes including p21/CDKN1 (Supplementary Figure S7B), confirming induction of p53 activity.

[3] = tested on: p53 wild-type Z-138 xenograft model; assay: Z-138 xenograft efficacy; format: in vivo, mouse; details: 21 days
mouse pharmacokinetics = format: in vivo; details: data not shown
[4] = tested on: SDMA in a panel of breast and lymphoma cell lines; assay: SDMA EC50 in breast and lymphoma cell line panel; format: cell-based; details: Homo sapiens; all cell lines of the panel; read-out: SDMA EC50 range
Protocol: SDMA ELISA was performed on homogenized cells and frozen tumour lysates. Fluorescence intensity generated by addition of Luminata Forte (Millipore #WBKUF0500) substrate was measured on a PerkinElmer Envision plate reader.
Cells were seeded in optical bottom cell culture plates and targets were probed with fluorescent secondary antibodies and DAPI stain. Quantification of nuclear SDMA and SMD3 levels was performed with a Molecular Devices […] high-content fluorescence imager and image analysis was performed with ImageExpress software.

## CC(=O)N1CCC(Nc2cc(C(=O)NC[C@H](O)CN3CCc4ccccc4C3)ncn2)CC1 [GSK3326595]
[1]
  IC50: > 40000 nM
SDMA in Z-138 tumors; 0.5 mg/kg BID
  SDMA % vehicle: 71%
SDMA in Z-138 tumors; 1.4 mg/kg BID
  SDMA % vehicle: 47%
SDMA in Z-138 tumors; 4.2 mg/kg BID
  SDMA % vehicle: 28%
SDMA in Z-138 tumors; 12.5 mg/kg BID
  SDMA % vehicle: 9%
SDMA in Z-138 tumors; 25 mg/kg BID
  SDMA % vehicle: 5%
SDMA in Z-138 tumors; 50 mg/kg BID
  SDMA % vehicle: 8%
SDMA in Z-138 tumors; 50 mg/kg QD
  SDMA % vehicle: 16%
SDMA in Z-138 tumors; 100 mg/kg BID
  SDMA % vehicle: 2%
SDMA in Z-138 tumors; 100 mg/kg QD
  SDMA % vehicle: 12%
SDMA in Z-138 tumors; 200 mg/kg QD
  SDMA % vehicle: 9%
[2]
  TGI: 55%
[3]; 25 mg/kg BID oral
  tumour growth inhibition (TGI): 52.1%
[3]; 50 mg/kg BID oral
  tumour growth inhibition (TGI): 88.03%
[3]; 100 mg/kg BID oral
  tumour growth inhibition (TGI): 106.05%
Mouse pharmacokinetics
  elimination half-life: 1.8 h
[4]
  EC50: 2 to 160 nM

Reference: publication PMC6018746, “Activation of the p53-MDM4 regulatory axis defines the anti-tumour response to PRMT5 inhibition through its role in regulating cellular splicing” (Scientific Reports, 2018)
